Structures can show the parent of a compound that is named as a salt.
Key:
KRas G12D mutant = experiment: Ras GTP Binding Domain Inhibition Assay (Ras Superfamily Assay); conditions: 20 μM compound; for KRas G12D mutant + SOS: % inh.: with SOS; for KRas G12D mutant: % inh.: without SOS
In short: (§1)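 Binding of 100 nM fluorescent GTP (Cy3 or Cy5, 45 min, room temperature) was read after washes from plate-captured His-tagged protein. Beforehand, compounds at 20 μM or in dilution series for IC50 sat 3 h on the protein in Tris buffer pH 7.4 or 7.0 with 1% DMSO, Sos GEF optionally added for the last hour.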

KRas wild type = experiment: as above; conditions: 20 μM compound; for KRas wild type + SOS: % inh.: with SOS; for KRas wild type: % inh.: without SOS
In short: as §1

Rac-1 = target: T1, Rac-1 (Homo sapiens, UniProt P63000); experiment: as above; conditions: read-out: Rac-1: % inh.
T1 construct: made in house
In short: as §1

Akt phosphorylation = experiment: Akt Phosphorylation Assay (western blot), Panc-1; type: cell-based, human; conditions: at 10 μM, * = activation
In short: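 Phospho-Akt (Ser473) was measured by western blot in lysates of KRas G12D Panc-1 cells exposed to test compound for 6 h at 37 °C, either at 10 μM final with 0.3% DMSO or as serial dilutions for IC50. One format used overnight 0.5% FBS starvation followed by a 15 min pulse of 1.5 ng/ml EGF. The other used cells in 10% FBS with no stimulation.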

IL6 = experiment: IL-6 Quantification Assay (ELISA), LPS-stimulated RAW 264.7; type: cell-based; set-up: inhibition: dose or concentration left out as unconfirmed; conditions: Mus musculus, RAW264.7; read-out: IL-6: % inh.

SMILES | KRas G12D mutant + SOS: % inh. (KRas G12D mutant) | KRas G12D mutant: % inh. (KRas G12D mutant) | KRas wild type + SOS: % inh. (KRas wild type) | KRas wild type: % inh. (KRas wild type) | inhibition at 20 µM (Rac-1) [%] | % inh of Akt phosphorylation in Panc-1 (Akt phosphorylation) | inhibition (IL6) [%]
CO[C@H]1CC[C@@H](Nc2nc(-c3nccn3C)nn3cc(-c4ccn(C(C)C)n4)c(C)c23)C1 (racemic) [Compound 1, rac 6-(1-Isopropyl-1H-pyrazol-3-yl)-N-((1R,3S)-3-methoxycyclopentyl)-5-methyl-2-(1-methyl-1H-imidazol-2-yl)pyrrolo[2,1-f][1,2,4]triazin-4-amine] | 0 (0 = 0% inhibition) | A (A = 1-25% inhibition) | A (A = 1-25% inhibition) | 0 (0 = 0% inhibition) | 1 to 25 | C* (46-84% activation) | 75 to 100
CO[C@H]1CC[C@@H](Nc2nc(-c3nccn3C)nn3cc(-c4ccn(C(C)C)n4)c(-c4ccccc4)c23)C1 (racemic) [Compound 18, rac 6-(1-Isopropyl-1H-pyrazol-3-yl)-N-((1R,3S)-3-methoxycyclopentyl)-2-(1-methyl-1H-imidazol-2-yl)-5-phenylpyrrolo[2,1-f][1,2,4]triazin-4-amine hydrochloride] | 0 (0 = 0% inhibition) | A (A = 1-25% inhibition) | A (A = 1-25% inhibition) | B (B = 26-49% inhibition) | 0 | D* (85-100% activation) | 25 to 49
COc1cc(Nc2nc(-c3nccn3C)nn3cc(-c4ccn(C(C)C)n4)c(C)c23)ccn1 [Compound 87, 6-(1-Isopropyl-1H-pyrazol-3-yl)-N-(2-methoxypyridin-4-yl)-5-methyl-2-(1-methyl-1H-imidazol-2-yl)pyrrolo[2,1-f][1,2,4]triazin-4-amine] | A (A = 1-25% inhibition) | A (A = 1-25% inhibition) | 0 (0 = 0% inhibition) | 0 (0 = 0% inhibition) | 0 | D* (85-100% activation) | 0
COc1cccc(Nc2nc(-c3nccn3C)nn3cc(-c4ccn(C(C)C)n4)c(C)c23)n1 [Compound 7, 6-(1-Isopropyl-1H-pyrazol-3-yl)-N-(6-methoxypyridin-2-yl)-5-methyl-2-(1-methyl-1H-imidazol-2-yl)pyrrolo[2,1-f][1,2,4]triazin-4-amine] | 0 (0 = 0% inhibition) | A (A = 1-25% inhibition) | 0 (0 = 0% inhibition) | A (A = 1-25% inhibition) | 0 | 0 (0% inhibition) | 1 to 24
COC[C@@H]1CC[C@@H]1CNc1nc(-c2nccn2C)nn2cc(-c3ccn(C(C)C)n3)c(-c3ccccc3)c12 (racemic) [Compound 20, rac 6-(1-Isopropyl-1H-pyrazol-3-yl)-N-(((1S,2R)-2-(methoxymethyl)cyclobutyl)methyl)-2-(1-methyl-1H-imidazol-2-yl)-5-phenylpyrrolo[2,1-f][1,2,4]triazin-4-amine] | 0 (0 = 0% inhibition) | A (A = 1-25% inhibition) | A (A = 1-25% inhibition) | A (A = 1-25% inhibition) | 0 | D (85-100% inhibition) | 75 to 100
COCCNc1nc(-c2nccn2C)nn2cc(-c3ccn(C(C)C)n3)c(C)c12 [Compound 5, 6-(1-Isopropyl-1H-pyrazol-3-yl)-N-(2-methoxyethyl)-5-methyl-2-(1-methyl-1H-imidazol-2-yl)pyrrolo[2,1-f][1,2,4]triazin-4-amine] | – | – | – | – | 26 to 49 | 0 (0% inhibition) | 0
Cc1c(-c2ccn(C(C)C)n2)cn2nc(-c3nccn3C)nc(Nc3ccn(C4CC4)n3)c12 [Compound 84, N-(1-Cyclopropyl-1H-pyrazol-3-yl)-6-(1-isopropyl-1H-pyrazol-3-yl)-5-methyl-2-(1-methyl-1H-imidazol-2-yl)pyrrolo[2,1-f][1,2,4]triazin-4-amine] | – | – | – | – | 76 to 100 | D* (85-100% activation) | 25 to 49
COCc1noc(Nc2nc(-c3nccn3C)nn3cc(-c4ccn(C(C)C)n4)c(C)c23)n1 [Compound 82, N-(6-(1-Isopropyl-1H-pyrazol-3-yl)-5-methyl-2-(1-methyl-1H-imidazol-2-yl)pyrrolo[2,1-f][1,2,4]triazin-4-yl)-3-(methoxymethyl)-1,2,4-oxadiazol-5-amine] | B (B = 26-49% inhibition) | C (C = 50-75% inhibition) | 0 (0 = 0% inhibition) | C (C = 50-75% inhibition) | 26 to 49 | D* (85-100% activation) | 75 to 100
COc1cccc(-c2cn3nc(-c4nccn4C)nc(N[C@@H]4CC[C@@H](OC)C4)c3c2-c2ccccc2)c1Cl.Cl (racemic) [Compound 34, rac 6-(2-Chloro-3-methoxyphenyl)-N-((1R,3R)-3-methoxycyclopentyl)-2-(1-methyl-1H-imidazol-2-yl)-5-phenylpyrrolo[2,1-f][1,2,4]triazin-4-amine hydrochloride] | 0 (0 = 0% inhibition) | 0 (0 = 0% inhibition) | A (A = 1-25% inhibition) | 0 (0 = 0% inhibition) | 26 to 49 | D (85-100% inhibition) | 75 to 100
COCc1csc(Nc2nc(-c3nccn3C)nn3cc(-c4ccn(C(C)C)n4)c(C)c23)n1 [Compound 79, N-(6-(1-Isopropyl-1H-pyrazol-3-yl)-5-methyl-2-(1-methyl-1H-imidazol-2-yl)pyrrolo[2,1-f][1,2,4]triazin-4-yl)-4-(methoxymethyl)thiazol-2-amine] | C (C = 50-75% inhibition) | D (D = 76-100% inhibition) | B (B = 26-49% inhibition) | C (C = 50-75% inhibition) | 76 to 100 | D* (85-100% activation) | 1 to 24
